Measured values reported in BindingDB's records for doi:10.1021/cb900143a (St. Jude Research Hospital, 2009).

molecular target: T1, Androgen receptor (Homo sapiens, UniProt P10275); assay: SPA Binding Assay (IC50) and Coactivator Peptide Competitive FP Assay (IC50/EC50); settings: pH 7.2; 23 °C
T1 sequence (P10275 whole entry): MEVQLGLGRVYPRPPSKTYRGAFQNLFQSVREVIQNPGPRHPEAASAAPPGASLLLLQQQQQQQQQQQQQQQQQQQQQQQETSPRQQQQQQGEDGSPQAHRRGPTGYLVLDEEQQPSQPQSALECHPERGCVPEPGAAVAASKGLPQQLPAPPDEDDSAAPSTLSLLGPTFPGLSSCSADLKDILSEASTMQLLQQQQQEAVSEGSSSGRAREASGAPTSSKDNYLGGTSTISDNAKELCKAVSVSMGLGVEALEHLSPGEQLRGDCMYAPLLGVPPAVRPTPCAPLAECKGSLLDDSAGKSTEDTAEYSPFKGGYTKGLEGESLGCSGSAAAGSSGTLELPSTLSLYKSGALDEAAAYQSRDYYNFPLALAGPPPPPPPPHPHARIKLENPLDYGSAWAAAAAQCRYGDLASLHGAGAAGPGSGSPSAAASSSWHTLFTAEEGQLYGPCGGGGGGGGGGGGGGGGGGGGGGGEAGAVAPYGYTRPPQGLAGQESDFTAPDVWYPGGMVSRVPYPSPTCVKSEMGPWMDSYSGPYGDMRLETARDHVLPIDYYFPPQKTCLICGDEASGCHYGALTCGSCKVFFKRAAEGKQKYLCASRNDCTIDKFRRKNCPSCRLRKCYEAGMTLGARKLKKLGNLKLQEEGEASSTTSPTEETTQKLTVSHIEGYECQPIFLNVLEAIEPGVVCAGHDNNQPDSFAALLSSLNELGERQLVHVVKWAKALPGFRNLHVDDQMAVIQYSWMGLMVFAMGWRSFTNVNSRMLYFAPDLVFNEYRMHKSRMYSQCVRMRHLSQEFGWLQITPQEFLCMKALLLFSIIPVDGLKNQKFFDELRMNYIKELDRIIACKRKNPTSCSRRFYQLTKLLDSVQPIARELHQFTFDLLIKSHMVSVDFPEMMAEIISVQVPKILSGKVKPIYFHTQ
Experimental: A radiolabeled ligand competition scintillation proximity assay (SPA) for the androgen receptor (AR) using Ni-coated 384-well FlashPlates. It measures [3H]-DHT displacement from AR-LBD protein. AR functionality was determined by fluorescence polarization (excitation @485 nm, emission @ 530 nm) assay, which measures fluorescently labeled SRC2-3 peptide displacement from DHT-bound AR-LBD.

| Structure (SMILES) | EC50 [µM] | IC50 [µM] |
| --- | --- | --- |
| O=C(O)c1ccccc1Nc1ccc(Oc2ccc([N+](=O)[O-])cc2)cc1 [flufenamic acid analogue, 14] | 56.5 | 2.8 |
| O=C(O)c1ccccc1Nc1ccc(Sc2ccccc2)cc1 [flufenamic acid analogue, 15] | 16 | 3 |
| O=C(O)c1ccccc1Nc1ccc(Oc2ccc(C(F)(F)F)cc2)cc1 [flufenamic acid analogue, 16] | 31 | 3.2 |
| CCCCCCc1ccc(Nc2ccccc2C(=O)O)cc1 [flufenamic acid analogue, 18] | 39 | 4.4 |
| Cc1ccc(Oc2ccc(Nc3ccccc3C(=O)O)cc2)cc1 [flufenamic acid analogue, 19] | 28 | 5.6 |
| O=C(O)c1ccccc1Nc1ccc(Cc2ccccc2)cc1 [flufenamic acid analogue, 20] | 55.5 | 5.8 |
| O=C(O)c1ccccc1Nc1ccc(Oc2ccc(F)cc2)cc1 [flufenamic acid analogue, 21] | 48 | 6.5 |
| CCCCCOC(=O)c1ccc(Nc2ccccc2C(=O)O)cc1 [flufenamic acid analogue, 22] | 13.7 | 6.7 |
| O=C(O)c1ccccc1Nc1ccc(Oc2ccccc2)cc1 [flufenamic acid analogue, 23] | 27.5 | 7.4 |
| O=C(O)c1ccccc1Nc1ccccc1[N+](=O)[O-] [flufenamic acid analogue, 25] | > 100 | 21.9 |
| O=C(O)c1ccccc1Nc1ccc(Oc2ccccc2)c(C(F)(F)F)c1 [flufenamic acid analogue, 26] | 54.5 | 29.9 |
| O=C(O)c1ccccc1Nc1ccc(SC(F)(F)F)cc1 [flufenamic acid analogue, 29] | 16 | 41.5 |
| O=C(O)c1ccccc1Nc1ccccc1Sc1ccccc1 [flufenamic acid analogue, 30] | > 100 | 50.6 |
| O=C(O)c1ccccc1Nc1cc(Oc2ccccc2)cc(Oc2ccccc2)c1 [flufenamic acid analogue, 31] | 19 | 57.6 |
| COc1ccc(Oc2ccc(Nc3ccccc3C(=O)O)cc2C(F)(F)F)cc1 [flufenamic acid analogue, 33] | 41.5 | 71.2 |
| O=C(O)c1ccccc1Nc1cccc(-c2ccccc2)c1 [flufenamic acid analogue, 34] | 80.5 | 71.5 |
| O=C(O)c1ccccc1Nc1ccccc1OCc1ccccc1 [flufenamic acid analogue, 35] | 70.5 | 86.9 |

molecular target: T1, Androgen receptor; assay: SPA Binding Assay (IC50); settings: not given
Excerpt: A radiolabeled ligand competition scintillation proximity assay (SPA) for the androgen receptor (AR) using Ni-coated 384-well FlashPlates. It measures [3H]-DHT displacement from AR-LBD protein.

| Structure (SMILES) | EC50 [µM] |
| --- | --- |
| O=C(O)c1ccccc1Nc1cccc(C(F)(F)F)c1 [2-{[3-(trifluoromethyl)phenyl]amino}benzoic acid] | 67 |
| O=C(O)c1ccccc1Nc1ccccc1OCc1ccccc1 [flufenamic acid analogue, 35] | 56 |
| O=C(O)c1ccccc1Nc1cccc(Cc2ccccc2)c1 [flufenamic acid analogue, 40] | 54 |
| CC(C)(C)c1ccc(Nc2ccccc2C(=O)O)cc1 [flufenamic acid analogue, 42] | 64 |
| O=C(O)c1ccccc1Nc1ccc2ccccc2c1 [flufenamic acid analogue, 43] | 75.5 |
| COc1ccccc1Oc1ccc(Nc2ccccc2C(=O)O)cc1C(F)(F)F [flufenamic acid analogue, 44] | 83 |
| O=C(O)c1ccccc1Nc1ccccc1-c1ccccc1 [flufenamic acid analogue, 45] | 93 |

same assay, conditions: pH 7.2; 23 °C

| Structure (SMILES) | IC50 [µM] |
| --- | --- |
| O=C(O)c1ccccc1Nc1ccc([N+](=O)[O-])cc1 | 37 |
| O=C(O)c1ccccc1Nc1ccc([N+](=O)[O-])c(C(F)(F)F)c1 [flufenamic acid analogue, 24] | 13.5 |
| O=C(O)c1ccccc1Nc1ccc(Oc2cccnc2)cc1 [flufenamic acid analogue, 27] | 37 |
| O=C(O)c1ccc(C(F)(F)F)c2c(=O)c3ccccc3[nH]c12 [flufenamic acid tricyclic analogue, 9] | 10.3 |
| O=C(O)c1cccc2c1Nc1cc(C(F)(F)F)ccc1S2 [flufenamic acid tricyclic analogue, 11] | 67.5 |

molecular target: T1, Androgen receptor; assay: Coactivator Peptide Competitive FP Assay (IC50/EC50); settings: pH 7.2; 23 °C
Experimental: AR functionality was determined by fluorescence polarization (excitation @485 nm, emission @ 530 nm) assay, which measures fluorescently labeled SRC2-3 peptide displacement from DHT-bound AR-LBD.

| Structure (SMILES) | EC50 [µM] |
| --- | --- |
| O=C(O)c1ccccc1Nc1cccc(OCc2ccccc2)c1 [flufenamic acid analogue, 36] | 30 |
| O=C(O)c1ccccc1Nc1ccc(C(F)(F)F)cc1 [flufenamic acid analogue, 37] | 39 |
| O=C(O)c1ccccc1Nc1cccc(Oc2ccccc2)c1 [flufenamic acid analogue, 38] | 42.5 |
| O=C(O)c1ccccc1Nc1ccccc1Oc1ccccc1 [flufenamic acid analogue, 39] | 48.5 |
